The values that follow are results of earlier work, collected in US9808427B2, “Swallowable N-acetylcysteine tablets” (ZAMBON S.P.A., priority 2013, dated 2017).

The conditions of series [1]: 1200 mg per day (2 tablets of 600 mg).

With `CC(=O)N[C@@H](CS)C(=O)O` [NAC, N-acetylcysteine], the “time to achieve pharmacologically active concentrations in pulmonary tissue and bronchial secretions” value (after taking the drug) is “approximately 3 hours”. Further, under “in vivo”, the “elimination of NAC and its metabolites” value was “essentially via the kidneys”. Also, under “oral administration, man”, the “absorption in the gastrointestinal tract” value is “quickly and completely absorbed”. Moreover, in series [1], the “efficacy and safety in long-term treatment of COPD” value was “effective and safe”.
